Experimental data reported in patent US10485235B2, “Aryloxypyrimidinyl ethers as herbicides” (FMC Corporation, priority 2015, dated 2019).

test system: barnyardgrass (Echinochloa crus-galli); experiment: Test A preemergence, barnyardgrass; format: in vivo; details: Preemergence, 31 g ai/ha; 0 to 100 scale (0 no effect, 100 complete control)
How it was run: (§1)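 Visual injury rating versus untreated controls on a 0 to 100 scale (0 = no effect, 100 = complete control), taken about 10 days after treatment in the greenhouse. Preemergence: directed soil spray over seeded loam–sand. Postemergence: spray on one- to two-leaf plants, 2 to 10 cm tall.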

Compound | Plant response rating, Barnyardgrass
N#Cc1cccc(Oc2ncc(F)cn2)c1OCCCF [Compound 30] | 0
Cc1cccc(Oc2ncc(Cl)cn2)c1OCCCF [Compound 57] | 0

same assay, conditions: Preemergence, 125 g ai/ha; 0 to 100 scale (0 no effect, 100 complete control)

Compound | Plant response rating, Barnyardgrass
N#Cc1cccc(Oc2ncc(F)cn2)c1OCCCF [Compound 30] | 20
Cc1cccc(Oc2ncc(Cl)cn2)c1OCCCF [Compound 57] | 20

test system: kochia (Kochia scoparia); experiment: Test A preemergence, kochia; format: in vivo; details: Preemergence, 31 g ai/ha; 0 to 100 scale (0 no effect, 100 complete control)
How it was run: as §1

Compound | Plant response rating, Kochia
N#Cc1cccc(Oc2ncc(F)cn2)c1OCCCF [Compound 30] | 90
Cc1cccc(Oc2ncc(Cl)cn2)c1OCCCF [Compound 57] | 0

same assay, conditions: Preemergence, 125 g ai/ha; 0 to 100 scale (0 no effect, 100 complete control)

Compound | Plant response rating, Kochia
N#Cc1cccc(Oc2ncc(F)cn2)c1OCCCF [Compound 30] | 90
Cc1cccc(Oc2ncc(Cl)cn2)c1OCCCF [Compound 57] | 20

test system: ragweed (common ragweed, Ambrosia elatior); experiment: Test A preemergence, ragweed; format: in vivo; details: Preemergence, 31 g ai/ha; 0 to 100 scale (0 no effect, 100 complete control)
How it was run: as §1

Compound | Plant response rating, Ragweed
N#Cc1cccc(Oc2ncc(F)cn2)c1OCCCF [Compound 30] | 20
Cc1cccc(Oc2ncc(Cl)cn2)c1OCCCF [Compound 57] | 0

same assay, conditions: Preemergence, 125 g ai/ha; 0 to 100 scale (0 no effect, 100 complete control)

Compound | Plant response rating, Ragweed
N#Cc1cccc(Oc2ncc(F)cn2)c1OCCCF [Compound 30] | 30
Cc1cccc(Oc2ncc(Cl)cn2)c1OCCCF [Compound 57] | 0

test system: ryegrass, Italian (Italian ryegrass, Lolium multiflorum); experiment: Test A preemergence, Italian ryegrass; format: in vivo; details: Preemergence, 31 g ai/ha; 0 to 100 scale (0 no effect, 100 complete control)
How it was run: as §1

Compound | Plant response rating, Ryegrass, Italian
N#Cc1cccc(Oc2ncc(F)cn2)c1OCCCF [Compound 30] | 0
Cc1cccc(Oc2ncc(Cl)cn2)c1OCCCF [Compound 57] | 0

same assay, conditions: Preemergence, 125 g ai/ha; 0 to 100 scale (0 no effect, 100 complete control)

Compound | Plant response rating, Ryegrass, Italian
N#Cc1cccc(Oc2ncc(F)cn2)c1OCCCF [Compound 30] | 20
Cc1cccc(Oc2ncc(Cl)cn2)c1OCCCF [Compound 57] | 0

test system: foxtail, giant (giant foxtail, Setaria faberii); experiment: Test A preemergence, giant foxtail; format: in vivo; details: Preemergence, 31 g ai/ha; 0 to 100 scale (0 no effect, 100 complete control)
How it was run: as §1

Compound | Plant response rating, Foxtail, Giant
N#Cc1cccc(Oc2ncc(F)cn2)c1OCCCF [Compound 30] | 10
Cc1cccc(Oc2ncc(Cl)cn2)c1OCCCF [Compound 57] | 0

same assay, conditions: Preemergence, 125 g ai/ha; 0 to 100 scale (0 no effect, 100 complete control)

Compound | Plant response rating, Foxtail, Giant
N#Cc1cccc(Oc2ncc(F)cn2)c1OCCCF [Compound 30] | 30
Cc1cccc(Oc2ncc(Cl)cn2)c1OCCCF [Compound 57] | 30

test system: pigweed (Amaranthus retroflexus); experiment: Test A preemergence, pigweed; format: in vivo; details: Preemergence, 31 g ai/ha; 0 to 100 scale (0 no effect, 100 complete control)
How it was run: as §1

Compound | Plant response rating, Pigweed
N#Cc1cccc(Oc2ncc(F)cn2)c1OCCCF [Compound 30] | 50
Cc1cccc(Oc2ncc(Cl)cn2)c1OCCCF [Compound 57] | 0

same assay, conditions: Preemergence, 125 g ai/ha; 0 to 100 scale (0 no effect, 100 complete control)

Compound | Plant response rating, Pigweed
N#Cc1cccc(Oc2ncc(F)cn2)c1OCCCF [Compound 30] | 80
Cc1cccc(Oc2ncc(Cl)cn2)c1OCCCF [Compound 57] | 60

test system: barnyardgrass (Echinochloa crus-galli); experiment: Test A postemergence, barnyardgrass; format: in vivo; details: 31 g ai/ha, postemergence; 0 to 100 scale, 0 is no effect, 100 is complete control; approximately 10 days
How it was run: as §1

Compound | Plant response rating, Barnyardgrass
N#Cc1cccc(Oc2ncc(F)cn2)c1OCCCF [Compound 30] | 0
Cc1cccc(Oc2ncc(Cl)cn2)c1OCCCF [Compound 57] | 0

same assay, conditions: 125 g ai/ha, postemergence; 0 to 100 scale, 0 is no effect, 100 is complete control; approximately 10 days

Compound | Plant response rating, Barnyardgrass
N#Cc1cccc(Oc2ncc(F)cn2)c1OCCCF [Compound 30] | 10
Cc1cccc(Oc2ncc(Cl)cn2)c1OCCCF [Compound 57] | 0

test system: kochia (Kochia scoparia); experiment: Test A postemergence, kochia; format: in vivo; details: 31 g ai/ha, postemergence; 0 to 100 scale, 0 is no effect, 100 is complete control; approximately 10 days
How it was run: as §1

Compound | Plant response rating, Kochia
N#Cc1cccc(Oc2ncc(F)cn2)c1OCCCF [Compound 30] | 0
Cc1cccc(Oc2ncc(Cl)cn2)c1OCCCF [Compound 57] | 0

same assay, conditions: 125 g ai/ha, postemergence; 0 to 100 scale, 0 is no effect, 100 is complete control; approximately 10 days

Compound | Plant response rating, Kochia
N#Cc1cccc(Oc2ncc(F)cn2)c1OCCCF [Compound 30] | 10
Cc1cccc(Oc2ncc(Cl)cn2)c1OCCCF [Compound 57] | 20

test system: ragweed (common ragweed, Ambrosia elatior); experiment: Test A postemergence, ragweed; format: in vivo; details: 31 g ai/ha, postemergence; 0 to 100 scale, 0 is no effect, 100 is complete control; approximately 10 days
How it was run: as §1

Compound | Plant response rating, Ragweed
N#Cc1cccc(Oc2ncc(F)cn2)c1OCCCF [Compound 30] | 0
Cc1cccc(Oc2ncc(Cl)cn2)c1OCCCF [Compound 57] | 0

same assay, conditions: 125 g ai/ha, postemergence; 0 to 100 scale, 0 is no effect, 100 is complete control; approximately 10 days

Compound | Plant response rating, Ragweed
N#Cc1cccc(Oc2ncc(F)cn2)c1OCCCF [Compound 30] | 10
Cc1cccc(Oc2ncc(Cl)cn2)c1OCCCF [Compound 57] | 0

test system: ryegrass, Italian (Italian ryegrass, Lolium multiflorum); experiment: Test A postemergence, Italian ryegrass; format: in vivo; details: 31 g ai/ha, postemergence; 0 to 100 scale, 0 is no effect, 100 is complete control; approximately 10 days
How it was run: as §1

Compound | Plant response rating, Ryegrass, Italian
N#Cc1cccc(Oc2ncc(F)cn2)c1OCCCF [Compound 30] | 30
Cc1cccc(Oc2ncc(Cl)cn2)c1OCCCF [Compound 57] | 0

same assay, conditions: 125 g ai/ha, postemergence; 0 to 100 scale, 0 is no effect, 100 is complete control; approximately 10 days

Compound | Plant response rating, Ryegrass, Italian
N#Cc1cccc(Oc2ncc(F)cn2)c1OCCCF [Compound 30] | 40
Cc1cccc(Oc2ncc(Cl)cn2)c1OCCCF [Compound 57] | 0

test system: foxtail, giant (giant foxtail, Setaria faberii); experiment: Test A postemergence, giant foxtail; format: in vivo; details: 31 g ai/ha, postemergence; 0 to 100 scale, 0 is no effect, 100 is complete control; approximately 10 days
How it was run: as §1

Compound | Plant response rating, Foxtail, Giant
N#Cc1cccc(Oc2ncc(F)cn2)c1OCCCF [Compound 30] | 0
Cc1cccc(Oc2ncc(Cl)cn2)c1OCCCF [Compound 57] | 0

same assay, conditions: 125 g ai/ha, postemergence; 0 to 100 scale, 0 is no effect, 100 is complete control; approximately 10 days

Compound | Plant response rating, Foxtail, Giant
N#Cc1cccc(Oc2ncc(F)cn2)c1OCCCF [Compound 30] | 0
Cc1cccc(Oc2ncc(Cl)cn2)c1OCCCF [Compound 57] | 10

test system: pigweed (Amaranthus retroflexus); experiment: Test A postemergence, pigweed; format: in vivo; details: 31 g ai/ha, postemergence; 0 to 100 scale, 0 is no effect, 100 is complete control; approximately 10 days
How it was run: as §1

Compound | Plant response rating, Pigweed
N#Cc1cccc(Oc2ncc(F)cn2)c1OCCCF [Compound 30] | 0
Cc1cccc(Oc2ncc(Cl)cn2)c1OCCCF [Compound 57] | 10

same assay, conditions: 125 g ai/ha, postemergence; 0 to 100 scale, 0 is no effect, 100 is complete control; approximately 10 days

Compound | Plant response rating, Pigweed
N#Cc1cccc(Oc2ncc(F)cn2)c1OCCCF [Compound 30] | 0
Cc1cccc(Oc2ncc(Cl)cn2)c1OCCCF [Compound 57] | 20

test system: wheat (Triticum aestivum); experiment: Test A postemergence, wheat; format: in vivo; details: 31 g ai/ha, postemergence; 0 to 100 scale, 0 is no effect, 100 is complete control; approximately 10 days
How it was run: as §1

Compound | Plant response rating, Wheat
N#Cc1cccc(Oc2ncc(F)cn2)c1OCCCF [Compound 30] | 0
Cc1cccc(Oc2ncc(Cl)cn2)c1OCCCF [Compound 57] | 0

same assay, conditions: 125 g ai/ha, postemergence; 0 to 100 scale, 0 is no effect, 100 is complete control; approximately 10 days

Compound | Plant response rating, Wheat
N#Cc1cccc(Oc2ncc(F)cn2)c1OCCCF [Compound 30] | 0
Cc1cccc(Oc2ncc(Cl)cn2)c1OCCCF [Compound 57] | 0

test system: corn (Zea mays); experiment: Test A postemergence, corn; format: in vivo; details: 31 g ai/ha, postemergence; 0 to 100 scale, 0 is no effect, 100 is complete control; approximately 10 days
How it was run: as §1

Compound | Plant response rating, Corn
N#Cc1cccc(Oc2ncc(F)cn2)c1OCCCF [Compound 30] | 0
Cc1cccc(Oc2ncc(Cl)cn2)c1OCCCF [Compound 57] | 0

same assay, conditions: 125 g ai/ha, postemergence; 0 to 100 scale, 0 is no effect, 100 is complete control; approximately 10 days

Compound | Plant response rating, Corn
N#Cc1cccc(Oc2ncc(F)cn2)c1OCCCF [Compound 30] | 0
Cc1cccc(Oc2ncc(Cl)cn2)c1OCCCF [Compound 57] | 10

test system: blackgrass (Alopecurus myosuroides); experiment: Test A postemergence, blackgrass; format: in vivo; details: 31 g ai/ha, postemergence; 0 to 100 scale, 0 is no effect, 100 is complete control; approximately 10 days
How it was run: as §1

Compound | Plant response rating, Blackgrass
N#Cc1cccc(Oc2ncc(F)cn2)c1OCCCF [Compound 30] | 0
Cc1cccc(Oc2ncc(Cl)cn2)c1OCCCF [Compound 57] | 0

same assay, conditions: 125 g ai/ha, postemergence; 0 to 100 scale, 0 is no effect, 100 is complete control; approximately 10 days

Compound | Plant response rating, Blackgrass
N#Cc1cccc(Oc2ncc(F)cn2)c1OCCCF [Compound 30] | 0
Cc1cccc(Oc2ncc(Cl)cn2)c1OCCCF [Compound 57] | 0

test system: galium (catchweed bedstraw, Galium aparine); experiment: Test A postemergence, galium; format: in vivo; details: 31 g ai/ha, postemergence; 0 to 100 scale, 0 is no effect, 100 is complete control; approximately 10 days
How it was run: as §1

Compound | Plant response rating, Galium
N#Cc1cccc(Oc2ncc(F)cn2)c1OCCCF [Compound 30] | 0
Cc1cccc(Oc2ncc(Cl)cn2)c1OCCCF [Compound 57] | 0

same assay, conditions: 125 g ai/ha, postemergence; 0 to 100 scale, 0 is no effect, 100 is complete control; approximately 10 days

Compound | Plant response rating, Galium
N#Cc1cccc(Oc2ncc(F)cn2)c1OCCCF [Compound 30] | 0
Cc1cccc(Oc2ncc(Cl)cn2)c1OCCCF [Compound 57] | 0

test system: rice (Oryza sativa); experiment: Test B flooded paddy test, rice; format: in vivo; details: 250 g ai/ha, Flood; visual rating after 13 to 15 days; scale 0 to 100, 0 is no effect, 100 is complete control
How it was run: (§2)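 Plants grown to the 2-leaf stage; pots flooded to 3 cm above soil and compounds applied directly into the paddy water, depth held throughout. After 13 to 15 days in the greenhouse, injury was rated visually against untreated controls on a 0–100 scale (0 no effect, 100 complete control).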

Compound | Plant response rating, Rice
N#Cc1cccc(Oc2ncc(F)cn2)c1OCCCF [Compound 30] | 0
Cc1cccc(Oc2ncc(Cl)cn2)c1OCCCF [Compound 57] | 0

test system: sedge, umbrella (small-flower umbrella sedge, Cyperus difformis); experiment: Test B flooded paddy test, umbrella sedge; format: in vivo; details: 250 g ai/ha, Flood; visual rating after 13 to 15 days; scale 0 to 100, 0 is no effect, 100 is complete control
How it was run: as §2

Compound | Plant response rating, Sedge, Umbrella
N#Cc1cccc(Oc2ncc(F)cn2)c1OCCCF [Compound 30] | 40
Cc1cccc(Oc2ncc(Cl)cn2)c1OCCCF [Compound 57] | 30

test system: ducksalad (Heteranthera limosa); experiment: Test B flooded paddy test, ducksalad; format: in vivo; details: 250 g ai/ha, Flood; visual rating after 13 to 15 days; scale 0 to 100, 0 is no effect, 100 is complete control
How it was run: as §2

Compound | Plant response rating, Ducksalad
N#Cc1cccc(Oc2ncc(F)cn2)c1OCCCF [Compound 30] | 30
Cc1cccc(Oc2ncc(Cl)cn2)c1OCCCF [Compound 57] | 70

test system: barnyardgrass (Echinochloa crus-galli); experiment: Test B flooded paddy test, barnyardgrass; format: in vivo; details: 250 g ai/ha, Flood; visual rating after 13 to 15 days; scale 0 to 100, 0 is no effect, 100 is complete control
How it was run: as §2

Compound | Plant response rating, Barnyardgrass
N#Cc1cccc(Oc2ncc(F)cn2)c1OCCCF [Compound 30] | 0
Cc1cccc(Oc2ncc(Cl)cn2)c1OCCCF [Compound 57] | 0
